In experiment [1] the target is T1, recombinant wild-type E. indica PPO1 (Eleusine indica, UniProt A0A6G5XNV7).
T1 sequence (A0A6G5XNV7 1-529): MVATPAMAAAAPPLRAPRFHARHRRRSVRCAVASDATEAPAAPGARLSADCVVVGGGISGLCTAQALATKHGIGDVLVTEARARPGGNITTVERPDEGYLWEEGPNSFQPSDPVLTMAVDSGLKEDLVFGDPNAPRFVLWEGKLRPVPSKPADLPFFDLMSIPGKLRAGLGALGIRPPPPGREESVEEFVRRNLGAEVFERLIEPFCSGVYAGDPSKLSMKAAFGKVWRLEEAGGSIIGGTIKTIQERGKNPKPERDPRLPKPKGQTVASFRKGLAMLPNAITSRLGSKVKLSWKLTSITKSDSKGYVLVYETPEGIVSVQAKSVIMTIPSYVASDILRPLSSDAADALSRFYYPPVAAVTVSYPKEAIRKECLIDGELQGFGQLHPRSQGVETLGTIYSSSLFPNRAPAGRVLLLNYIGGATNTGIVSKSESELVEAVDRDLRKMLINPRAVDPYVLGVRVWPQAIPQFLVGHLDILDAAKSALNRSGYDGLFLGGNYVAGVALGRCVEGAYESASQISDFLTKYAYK
Put plainly: In vitro PPO enzyme activity inhibition, wild-type PPO1. Format: biochemical. From the text: Effects of A212T substitution were studied using the E. indica backbone. The wild-type E. indica PPO1 and the E. indica PPO1 A212T variants were synthesized de novo and subcloned into pRSetB plasmid (Invitrogen, Carlsbad, Calif.). The complete description of expression and purification of E. indica PPO1 and E. indica PPO1 A212T variant proteins were referenced to the method described for PPO2 by Rangani et al. (2019, Frontiers in Plant Sci., 10:568). […] Oxadiazon, sulfentrazone, saflufenacil and lactofen are from the class of oxadiazole, triazolinone, pyrimidinedione, and diphenyl ether, respectively. Flumioxazin and trifludimoxazin are from the same chemical family, N-phenylphthalimide. […] The assay was replicated twice.

Experiment [2] concerns the target recombinant variant E. indica PPO1 A212T (Eleusine indica, UniProt A0A6G5XNV7, A212T). Kind of experiment: In vitro PPO enzyme activity inhibition, variant PPO1 A212T. Format: biochemical. The text has this: Effects of A212T substitution were studied using the E. indica backbone. The wild-type E. indica PPO1 and the E. indica PPO1 A212T variants were synthesized de novo and subcloned into pRSetB plasmid (Invitrogen, Carlsbad, Calif.). The complete description of expression and purification of E. indica PPO1 and E. indica PPO1 A212T variant proteins were referenced to the method described for PPO2 by Rangani et al. (2019, Frontiers in Plant Sci., 10:568). Six PPO inhibitors, belonging to five different chemical families, were evaluated on the PPO enzyme activity at a concentrations ranging from 5.00×10^−5M to 5.12×10^−12M. Oxadiazon, sulfentrazone, saflufenacil and lactofen are from the class of oxadiazole, triazolinone, pyrimidinedione, and diphenyl ether, respectively. Flumioxazin and trifludimoxazin are from the same chemical family, N-phenylphthalimide. […] The assay was replicated twice.

This passage reports inhibition and IC50 results from patent publication US20220282271A1, “HERBICIDE RESISTANT PLANTS AND METHODS OF MAKING AND USING” (OFFICE OF INNOVATION ADVANCEMENT AND COMMERCIALIZATION, priority 2019, published 2022).

recombinant variant E. indica PPO1 A212T, sequence (A0A6G5XNV7 entry or part of it A212T): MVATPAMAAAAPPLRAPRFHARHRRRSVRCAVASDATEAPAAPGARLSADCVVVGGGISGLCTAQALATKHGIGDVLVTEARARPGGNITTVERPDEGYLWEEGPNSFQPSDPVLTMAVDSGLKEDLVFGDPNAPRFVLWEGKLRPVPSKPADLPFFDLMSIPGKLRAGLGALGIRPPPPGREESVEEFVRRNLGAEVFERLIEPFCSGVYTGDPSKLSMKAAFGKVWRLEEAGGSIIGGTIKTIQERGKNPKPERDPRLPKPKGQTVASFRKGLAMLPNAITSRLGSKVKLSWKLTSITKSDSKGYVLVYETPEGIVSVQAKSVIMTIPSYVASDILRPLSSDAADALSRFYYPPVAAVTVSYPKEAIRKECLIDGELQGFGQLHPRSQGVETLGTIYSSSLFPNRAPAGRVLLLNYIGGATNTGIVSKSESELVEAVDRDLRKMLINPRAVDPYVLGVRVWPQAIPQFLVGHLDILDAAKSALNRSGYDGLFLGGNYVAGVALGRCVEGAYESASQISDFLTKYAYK

Broadly, the inhibition is the drop in the measured response relative to a control, in per cent. The IC50 is the point on the concentration scale where inhibition reaches its midpoint. Consider `CC(C)N(C)S(=O)(=O)NC(=O)c1cc(-n2c(=O)cc(C(F)(F)F)n(C)c2=O)c(F)cc1Cl` [Saflufenacil, saflufenacil], for which the inhibition at 10 µM in experiment [1] (highest herbicide concentration 10^−5 M) and in experiment [2] (read-out: Variant E. indica PPO1 A212T % inhibition) was > 90% in each case. The IC50 in experiment [1] (recombinant enzyme, in vitro, read-out: Wild-type E. indica PPO1 sensitivity [IC50]) worked out at 19.4 nM; in experiment [2], 449 nM.
